This note sets out measurements from ChEMBL document CHEMBL4371076 (J Med Chem, 2019).

Molecules are shown by their SMILES.

Data set [1] has as its target T1, Cytochrome P450 2C8 (Homo sapiens, UniProt P10632).
T1 sequence (P10632 whole entry): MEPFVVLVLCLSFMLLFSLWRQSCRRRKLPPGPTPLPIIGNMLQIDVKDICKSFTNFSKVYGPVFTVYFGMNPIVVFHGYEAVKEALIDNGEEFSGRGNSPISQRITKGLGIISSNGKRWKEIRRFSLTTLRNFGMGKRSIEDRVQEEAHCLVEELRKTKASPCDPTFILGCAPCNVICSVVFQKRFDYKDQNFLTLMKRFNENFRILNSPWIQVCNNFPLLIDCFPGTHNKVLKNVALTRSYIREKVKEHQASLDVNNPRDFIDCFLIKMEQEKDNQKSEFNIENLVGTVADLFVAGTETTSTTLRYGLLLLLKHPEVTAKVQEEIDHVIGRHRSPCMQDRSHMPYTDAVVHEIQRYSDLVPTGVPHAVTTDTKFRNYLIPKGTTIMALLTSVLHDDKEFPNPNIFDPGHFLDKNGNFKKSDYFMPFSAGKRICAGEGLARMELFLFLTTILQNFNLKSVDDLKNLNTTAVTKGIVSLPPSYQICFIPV
Nature of the data set: Inhibition of CYP2C8 in human liver microsomes. The class given is ADME. The settings on record: human, microsomes. (In general: Microsomes from liver hold many membrane-bound enzymes, among them those of drug oxidation.)

The nature of data set [2]: Metabolic stability in human liver microsomes assessed as parent compound remaining at 0.5 uM after 10 mins. The class given is ADME, Microsome. The settings on record: read-out: Stability.
Data set [3] concerns the target T1, Cytochrome P450 2C8. Nature of the data set: Time-dependant inhibition of CYP2C8 in human liver microsomes. It counts as ADME.
Data set [4] concerns the target T2, Cytochrome P450 2B6 (Homo sapiens, UniProt P20813).
T2 sequence (P20813 whole entry): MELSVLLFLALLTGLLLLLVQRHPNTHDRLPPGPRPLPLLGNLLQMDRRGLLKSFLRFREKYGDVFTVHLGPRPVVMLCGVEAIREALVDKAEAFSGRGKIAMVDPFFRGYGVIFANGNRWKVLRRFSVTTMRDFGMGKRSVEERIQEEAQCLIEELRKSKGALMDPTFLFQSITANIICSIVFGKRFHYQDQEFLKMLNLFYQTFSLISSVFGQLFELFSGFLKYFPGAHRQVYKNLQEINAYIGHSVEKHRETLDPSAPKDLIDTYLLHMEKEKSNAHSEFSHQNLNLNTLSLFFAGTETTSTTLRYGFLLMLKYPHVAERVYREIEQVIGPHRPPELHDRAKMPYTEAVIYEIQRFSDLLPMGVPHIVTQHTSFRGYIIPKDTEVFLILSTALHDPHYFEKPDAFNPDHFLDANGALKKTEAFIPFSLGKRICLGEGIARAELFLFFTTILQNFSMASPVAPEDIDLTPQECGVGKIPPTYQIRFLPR
Nature of the data set: Inhibition of CYP2B6 in human liver microsomes. It counts as ADME. The note with it: human, microsomes.

In data set [5] the target is T3, Cytochrome P450 2D6 (Homo sapiens, UniProt P10635). Nature of the data set: Time-dependant inhibition of CYP2D6 in human liver microsomes. The class given is ADME.
T3 sequence (P10635 whole entry): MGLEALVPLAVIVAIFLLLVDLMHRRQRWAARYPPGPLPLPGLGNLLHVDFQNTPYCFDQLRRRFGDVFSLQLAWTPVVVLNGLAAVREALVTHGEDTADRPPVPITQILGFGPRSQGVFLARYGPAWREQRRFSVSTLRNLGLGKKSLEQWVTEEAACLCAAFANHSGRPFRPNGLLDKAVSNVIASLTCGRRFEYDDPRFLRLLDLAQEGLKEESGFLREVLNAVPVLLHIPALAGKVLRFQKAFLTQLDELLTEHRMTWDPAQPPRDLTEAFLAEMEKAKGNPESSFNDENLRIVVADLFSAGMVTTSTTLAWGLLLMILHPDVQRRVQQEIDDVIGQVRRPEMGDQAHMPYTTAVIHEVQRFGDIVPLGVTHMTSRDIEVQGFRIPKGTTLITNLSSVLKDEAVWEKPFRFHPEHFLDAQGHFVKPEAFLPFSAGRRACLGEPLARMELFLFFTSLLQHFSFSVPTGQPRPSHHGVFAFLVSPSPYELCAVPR
Data set [6] can be described thus: Permeability from apical to basolateral side in human Caco2 cells. The note with it: Caco-2, read-out: permeability. It counts as ADME, cell-based. In general terms: Caco-2 monolayers are a common model of the intestinal barrier.
Data set [7] can be described thus: Fraction unbound in mouse plasma. It counts as ADME, cell-free.
Data set [8] is described as follows: Permeability of the compound at pH 7.4 by PAMPA. The class given is ADME. The note with it: read-out: permeability.
Data set [9] addresses T4, Sodium channel protein type 9 subunit alpha (Homo sapiens, UniProt Q15858). Nature of the data set: Inhibition of recombinant human Nav1.7 expressed in HEK293 cells at -70 mV holding potential by patch clamp electrophysiology method. It counts as cell-based. On the technique in general: Patch clamp records ionic current or voltage across a cell membrane.
Data set [10] addresses T3, Cytochrome P450 2D6. Nature of the data set: Inhibition of CYP2D6 in human liver microsomes. It counts as ADME. The settings on record: human, microsomes.
Data set [11] concerns the target T4, Sodium channel protein type 9 subunit alpha. Nature of the data set: Inhibition of human Nav1.7 expressed in HEK293 cells after 600 secs at -60 mV holding potential by ion works barracuda population patch clamp method. The class given is cell-based.
The target of data set [12] is T5, Cytochrome P450 3A4 (Homo sapiens, UniProt P08684). Nature of the data set: Time-dependant inhibition of CYP3A4 in human liver microsomes. The class given is ADME.
T5 sequence (P08684 whole entry): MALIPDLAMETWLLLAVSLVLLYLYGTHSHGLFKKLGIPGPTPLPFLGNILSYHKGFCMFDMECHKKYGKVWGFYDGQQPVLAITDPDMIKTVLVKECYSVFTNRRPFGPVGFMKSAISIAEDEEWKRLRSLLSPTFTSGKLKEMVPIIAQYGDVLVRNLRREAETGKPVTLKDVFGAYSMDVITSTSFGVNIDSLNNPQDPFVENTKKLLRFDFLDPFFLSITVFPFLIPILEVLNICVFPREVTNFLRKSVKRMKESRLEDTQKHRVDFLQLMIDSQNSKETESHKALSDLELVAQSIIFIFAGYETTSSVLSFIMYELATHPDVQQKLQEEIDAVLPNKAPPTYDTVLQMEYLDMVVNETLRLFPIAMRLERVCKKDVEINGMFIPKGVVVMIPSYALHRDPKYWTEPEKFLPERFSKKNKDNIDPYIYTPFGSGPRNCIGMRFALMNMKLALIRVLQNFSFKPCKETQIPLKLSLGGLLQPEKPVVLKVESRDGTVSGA
For data set [13], the target named is T6, Cytochrome P450 2C9 (Homo sapiens, UniProt P11712). Nature of the data set: Inhibition of CYP2C9 in human liver microsomes. It counts as ADME. The note with it: human, microsomes.
T6 sequence (P11712 whole entry): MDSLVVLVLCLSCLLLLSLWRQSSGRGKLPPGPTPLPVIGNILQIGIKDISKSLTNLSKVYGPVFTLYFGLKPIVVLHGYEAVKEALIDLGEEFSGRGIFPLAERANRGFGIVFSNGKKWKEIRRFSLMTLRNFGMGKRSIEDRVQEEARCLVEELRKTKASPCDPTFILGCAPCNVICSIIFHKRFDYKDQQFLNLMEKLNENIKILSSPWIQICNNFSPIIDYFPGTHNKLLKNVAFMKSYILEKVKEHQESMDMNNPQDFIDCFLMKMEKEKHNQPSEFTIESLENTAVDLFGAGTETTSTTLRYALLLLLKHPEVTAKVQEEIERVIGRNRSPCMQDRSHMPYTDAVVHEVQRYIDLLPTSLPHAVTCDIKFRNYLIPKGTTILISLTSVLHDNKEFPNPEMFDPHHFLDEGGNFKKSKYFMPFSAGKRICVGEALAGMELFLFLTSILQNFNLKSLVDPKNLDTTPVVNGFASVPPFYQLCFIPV
Data set [14] is described as follows: Efflux ratio of permeability in human Caco2 cells. It counts as ADME, cell-based. The settings on record: Caco-2.
Data set [15] concerns the target T7, Cytochrome P450 2C19 (Homo sapiens, UniProt P33261). Nature of the data set: Time-dependant inhibition of CYP2C19 in human liver microsomes. The class given is ADME.
Data set [16] has as its target T6, Cytochrome P450 2C9. Nature of the data set: Time-dependant inhibition of CYP2C9 in human liver microsomes. The class given is ADME.
Data set [17] can be described thus: Metabolic stability in rat liver microsomes assessed as parent compound remaining at 0.5 uM after 10 mins. It counts as ADME, Microsome. The settings on record: read-out: Stability.
Data set [18] in a line: Metabolic stability in mouse liver microsomes assessed as parent compound remaining at 0.5 uM after 10 mins. It counts as ADME, Microsome. The settings on record: read-out: Stability.
Data set [19] can be described thus: Permeability from basolateral to apical side in human Caco2 cells. It counts as ADME, cell-based. The note with it: Caco-2, read-out: permeability.
A short description of data set [20]: Fraction unbound in human plasma. It counts as ADME, cell-free.
The target of data set [21] is T2, Cytochrome P450 2B6. Nature of the data set: Time-dependant inhibition of CYP2B6 in human liver microsomes. It counts as ADME.
In data set [22] the target is T7, Cytochrome P450 2C19. Nature of the data set: Inhibition of CYP2C19 in human liver microsomes. The class given is ADME. The settings on record: human, microsomes.
The target of data set [23] is T5, Cytochrome P450 3A4. Nature of the data set: Inhibition of CYP3A4 in human liver microsomes. The class given is ADME. The note with it: human, microsomes.
A short description of data set [24]: Permeability of the compound at pH 5.5 by PAMPA. The class given is ADME. The note with it: read-out: permeability.

T7 sequence (P33261 whole entry): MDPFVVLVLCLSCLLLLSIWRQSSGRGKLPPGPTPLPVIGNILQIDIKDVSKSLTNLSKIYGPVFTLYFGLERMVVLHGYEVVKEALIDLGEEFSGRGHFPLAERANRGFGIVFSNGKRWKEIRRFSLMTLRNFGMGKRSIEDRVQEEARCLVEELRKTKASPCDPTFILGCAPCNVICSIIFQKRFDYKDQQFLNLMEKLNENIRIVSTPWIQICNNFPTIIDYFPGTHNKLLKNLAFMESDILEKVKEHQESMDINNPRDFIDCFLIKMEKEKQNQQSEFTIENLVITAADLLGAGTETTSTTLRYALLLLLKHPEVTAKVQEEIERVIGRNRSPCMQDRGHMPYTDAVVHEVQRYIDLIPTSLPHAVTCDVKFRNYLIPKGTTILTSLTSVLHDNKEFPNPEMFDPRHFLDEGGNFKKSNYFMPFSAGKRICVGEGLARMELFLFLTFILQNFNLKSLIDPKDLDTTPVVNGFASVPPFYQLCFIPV
T4 sequence (Q15858 whole entry): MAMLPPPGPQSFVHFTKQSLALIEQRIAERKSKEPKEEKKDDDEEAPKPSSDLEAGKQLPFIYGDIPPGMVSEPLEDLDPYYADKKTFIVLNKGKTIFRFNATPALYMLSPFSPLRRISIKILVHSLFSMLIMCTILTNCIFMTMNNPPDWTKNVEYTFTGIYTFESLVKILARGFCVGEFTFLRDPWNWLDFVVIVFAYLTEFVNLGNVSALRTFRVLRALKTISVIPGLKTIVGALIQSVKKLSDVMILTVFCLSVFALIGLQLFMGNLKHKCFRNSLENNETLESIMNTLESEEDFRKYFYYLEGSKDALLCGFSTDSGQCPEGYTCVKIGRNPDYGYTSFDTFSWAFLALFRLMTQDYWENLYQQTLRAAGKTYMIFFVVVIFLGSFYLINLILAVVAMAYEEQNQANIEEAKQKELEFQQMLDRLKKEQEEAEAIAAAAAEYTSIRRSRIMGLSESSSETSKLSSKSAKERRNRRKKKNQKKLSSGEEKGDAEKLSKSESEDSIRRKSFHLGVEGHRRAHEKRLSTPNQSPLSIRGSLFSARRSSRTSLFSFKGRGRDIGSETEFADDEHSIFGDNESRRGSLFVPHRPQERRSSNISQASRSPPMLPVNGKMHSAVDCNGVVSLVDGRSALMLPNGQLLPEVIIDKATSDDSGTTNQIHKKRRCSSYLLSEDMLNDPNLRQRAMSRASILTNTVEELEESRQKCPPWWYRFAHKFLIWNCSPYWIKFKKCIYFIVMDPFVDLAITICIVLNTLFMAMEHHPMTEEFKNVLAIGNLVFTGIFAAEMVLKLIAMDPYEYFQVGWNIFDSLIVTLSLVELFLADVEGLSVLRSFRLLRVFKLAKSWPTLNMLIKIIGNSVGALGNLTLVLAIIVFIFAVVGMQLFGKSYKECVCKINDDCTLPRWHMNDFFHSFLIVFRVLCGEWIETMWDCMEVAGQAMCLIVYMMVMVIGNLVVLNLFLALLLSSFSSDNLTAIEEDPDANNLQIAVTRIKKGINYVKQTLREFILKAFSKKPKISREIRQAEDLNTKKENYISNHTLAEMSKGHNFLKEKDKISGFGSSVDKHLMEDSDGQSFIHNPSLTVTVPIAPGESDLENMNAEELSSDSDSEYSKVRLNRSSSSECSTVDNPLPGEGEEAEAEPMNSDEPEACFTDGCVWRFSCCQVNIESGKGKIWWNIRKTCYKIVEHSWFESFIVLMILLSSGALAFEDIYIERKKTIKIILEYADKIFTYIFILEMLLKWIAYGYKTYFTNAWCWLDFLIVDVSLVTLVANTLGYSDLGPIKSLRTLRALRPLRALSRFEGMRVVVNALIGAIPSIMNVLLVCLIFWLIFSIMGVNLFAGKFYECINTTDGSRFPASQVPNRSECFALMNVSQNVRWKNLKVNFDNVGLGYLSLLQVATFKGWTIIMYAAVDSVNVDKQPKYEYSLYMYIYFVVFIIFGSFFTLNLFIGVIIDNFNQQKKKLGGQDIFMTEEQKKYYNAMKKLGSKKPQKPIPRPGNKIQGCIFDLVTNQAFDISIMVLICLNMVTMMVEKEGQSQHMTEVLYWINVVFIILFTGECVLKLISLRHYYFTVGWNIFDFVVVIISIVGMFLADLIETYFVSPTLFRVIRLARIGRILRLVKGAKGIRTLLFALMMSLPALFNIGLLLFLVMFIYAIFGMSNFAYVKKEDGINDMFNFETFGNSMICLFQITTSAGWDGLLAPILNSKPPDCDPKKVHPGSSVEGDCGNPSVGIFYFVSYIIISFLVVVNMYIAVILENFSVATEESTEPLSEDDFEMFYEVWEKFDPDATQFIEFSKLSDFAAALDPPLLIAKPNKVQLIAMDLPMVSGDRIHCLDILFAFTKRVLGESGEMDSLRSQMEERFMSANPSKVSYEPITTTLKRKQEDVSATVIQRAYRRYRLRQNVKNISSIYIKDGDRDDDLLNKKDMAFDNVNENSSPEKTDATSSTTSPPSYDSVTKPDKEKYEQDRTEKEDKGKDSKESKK

As for `Cn1cc(-c2cnc(OCC3CC3)c(Cl)c2)c2ccc(C(=O)NS(=O)(=O)C3CC3)cc21`, the “inhibition (INH)” value against Cytochrome P450 2C8 [1], on Cytochrome P450 2B6 [4], against Cytochrome P450 2D6 [10], on Cytochrome P450 2C9 [13], against Cytochrome P450 2C19 [22] and against Cytochrome P450 3A4 [23] was “Not Active” throughout. The remaining at 10 min, 0.5 µM is 97% in data set [2], 77% in data set [17] and 93% in data set [18]. For the same compound, the TDI entry at Cytochrome P450 2C8 [3], at Cytochrome P450 2D6 [5], at Cytochrome P450 3A4 [12], at Cytochrome P450 2C19 [15], at Cytochrome P450 2C9 [16] and at Cytochrome P450 2B6 [21] was “Not Active” throughout. In addition, the Papp A→B in [6] is below 1.5 ×10⁻⁶ cm/s. Further, the free fraction (fraction unbound) – broadly, the share of the substance not bound to proteins or other matrix – in data set [7] is 0.002; in data set [20] it was below 0.001. The Papp in [8] was 39.1 ×10⁻⁶ cm/s. Also, the figures for the concentration for half-maximal inhibition (IC50) in data set [9] and in [11] were 27 nM and 82 nM, respectively. For the same compound, the efflux ratio (in general, the permeability from basolateral to apical divided by that in the opposite direction, in the common usage) in [14] was above 7.6. Moreover, the Papp B→A in data set [19] worked out at 11.4 ×10⁻⁶ cm/s.
Turning to `Cn1cc(-c2ccc(C(F)(F)F)cc2)c2ccc(C(=O)NS(C)(=O)=O)cc21`, the “inhibition (INH)” value against Cytochrome P450 2C8 [1], against Cytochrome P450 2B6 [4], at Cytochrome P450 2D6 [10], against Cytochrome P450 2C9 [13], at Cytochrome P450 2C19 [22] and at Cytochrome P450 3A4 [23] was “Not Active” throughout. The results for the remaining at 10 min, 0.5 µM in data set [2], in data set [17] and in data set [18] were 100%, 74% and 54%, respectively. In addition, the Papp in [24] is 97.2 ×10⁻⁶ cm/s; in data set [8] it was 17.1 ×10⁻⁶ cm/s. The TDI result at Cytochrome P450 2C8 [3], on Cytochrome P450 2D6 [5], at Cytochrome P450 3A4 [12], on Cytochrome P450 2C19 [15], at Cytochrome P450 2C9 [16] and at Cytochrome P450 2B6 [21] was “Not Active” in each case. Also, the Papp A→B in data set [6] was below 1.5 ×10⁻⁶ cm/s. In addition, the fraction unbound in data set [7] and in data set [20] was below 0.001 in each case. Besides, the IC50 (commonly the concentration that gives 50% inhibition) in data set [9] amounted to 96 nM; in data set [11], 88 nM. In data set [14], the efflux ratio was above 5.1. Besides, the Papp B→A in data set [19] worked out at 7.6 ×10⁻⁶ cm/s.
As for `Cn1cc(-c2ccc(C(F)(F)F)cc2)c2cc(F)c(C(=O)NS(C)(=O)=O)cc21`, the “inhibition (INH)” value on Cytochrome P450 2C8 [1], against Cytochrome P450 2B6 [4], at Cytochrome P450 2D6 [10], against Cytochrome P450 2C9 [13], at Cytochrome P450 2C19 [22] and against Cytochrome P450 3A4 [23] was “Not Active” each time. The remaining at 10 min, 0.5 µM is 97% in [2], 99% in data set [17] and 95% in data set [18]. The values for the Papp in data set [24] and in data set [8] were 71.2 ×10⁻⁶ cm/s and 14 ×10⁻⁶ cm/s, respectively. Moreover, the TDI result on Cytochrome P450 2C8 [3], on Cytochrome P450 2D6 [5], at Cytochrome P450 3A4 [12], at Cytochrome P450 2C19 [15], at Cytochrome P450 2C9 [16] and on Cytochrome P450 2B6 [21] was “Not Active” throughout. The Papp A→B in [6] is 2 ×10⁻⁶ cm/s. Also, the unbound share (fraction unbound) in data set [7] turned out to be 0.005; in data set [20], 0.002. Besides, the IC50 in data set [9] was 13 nM. The efflux ratio in [14] came to 6.1. Moreover, in [19], the Papp B→A was found to be 12.5 ×10⁻⁶ cm/s.
